From paper PMC3500524 (Cancer cell, 2012)
Values belong to the compound of their own block, whether it stands above or below them.

What was measured:
PHGDH = target: T1, PHGDH (Homo sapiens, UniProt O43175); assay: PHGDH enzyme activity assay; format: biochemical
T1 sequence (O43175 1-533): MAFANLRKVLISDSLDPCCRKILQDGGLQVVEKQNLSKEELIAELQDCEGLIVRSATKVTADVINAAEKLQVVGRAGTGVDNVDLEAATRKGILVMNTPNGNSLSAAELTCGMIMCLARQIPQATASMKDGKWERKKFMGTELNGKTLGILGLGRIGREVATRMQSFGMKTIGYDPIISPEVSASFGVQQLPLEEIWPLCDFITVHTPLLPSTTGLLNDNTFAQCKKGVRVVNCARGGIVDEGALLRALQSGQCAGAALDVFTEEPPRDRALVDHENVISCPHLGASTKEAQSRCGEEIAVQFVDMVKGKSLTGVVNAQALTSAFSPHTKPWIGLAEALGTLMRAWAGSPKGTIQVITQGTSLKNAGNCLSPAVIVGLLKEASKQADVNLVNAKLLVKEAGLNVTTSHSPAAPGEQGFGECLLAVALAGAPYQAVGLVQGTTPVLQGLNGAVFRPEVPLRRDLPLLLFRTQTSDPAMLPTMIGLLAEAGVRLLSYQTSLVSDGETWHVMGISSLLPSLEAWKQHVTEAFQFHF

6PGD [1] = target: T2, 6PGD (Homo sapiens, UniProt P52209); assay: in vitro 6PGD enzyme activity assay; format: biochemical; settings: H1299 cell lysates or r6PGD
T2 sequence (P52209 1-483): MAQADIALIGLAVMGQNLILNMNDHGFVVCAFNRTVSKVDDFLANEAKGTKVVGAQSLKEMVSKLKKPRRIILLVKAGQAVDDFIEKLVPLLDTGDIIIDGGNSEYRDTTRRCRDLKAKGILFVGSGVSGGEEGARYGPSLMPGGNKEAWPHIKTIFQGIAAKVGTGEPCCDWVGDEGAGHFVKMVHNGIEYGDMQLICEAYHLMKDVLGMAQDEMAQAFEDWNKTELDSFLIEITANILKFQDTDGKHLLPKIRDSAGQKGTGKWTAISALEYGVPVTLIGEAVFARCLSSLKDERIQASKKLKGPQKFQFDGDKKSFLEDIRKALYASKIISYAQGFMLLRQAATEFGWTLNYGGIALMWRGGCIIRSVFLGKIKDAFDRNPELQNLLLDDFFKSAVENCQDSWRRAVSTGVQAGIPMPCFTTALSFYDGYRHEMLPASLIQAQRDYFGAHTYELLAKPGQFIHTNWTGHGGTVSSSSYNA

6PGD [2] = target: T2, 6PGD; assay: thermal melt shift assay of 6PGD with ligand; format: binding; settings: read-out: Kd for protein (6PGD)-ligand interaction
6PGD [3] = target: T2, 6PGD; assay: 6PGD enzyme kinetics
G6PD = G6PD (Homo sapiens, UniProt P11413); assay: in vitro G6PD enzyme activity assay; format: biochemical; settings: increasing concentrations; H1299 cell lysates or rG6PD
cancer cells = settings: ref Engel et al., 2004; Evans et al., 2005; cited from earlier work
PGAM1 = PGAM1 (Homo sapiens, UniProt P18669); settings: intact cells, ref Evans et al., 2007, 2005; cited from earlier work
H1299 xenograft = H1299 xenograft in nude mice; format: in vivo, mouse
[4] = system: diverse human cancer and leukemia cells; assay: cell proliferation / viability by trypan blue exclusion; format: cell-based
H1299 cells [5] = assay: cell proliferation of H1299 cells; format: cell-based, human
[6] = system: primary leukemia cells from human patients; assay: treatment of primary leukemia cells from human patients; format: cell-based
H1299 cells [7] = assay: metabolism of H1299 cells under inhibitor treatment; format: cell-based, human
nude mice = assay: toxicity studies in nude mice; format: in vivo
[8] = system: human dermal fibroblasts (HDF), human foreskin fibroblasts (HFF), HaCaT keratinocyte cells, melanocyte PIG1 cells; assay: cell proliferation / viability of normal proliferating human cells; format: cell-based
[9] = target: purified human PGAM1 proteins (Homo sapiens, UniProt P18669); assay: PGAM1 enzyme assay; format: biochemical; settings: comparison among alizarin and derivatives
[10] = system: human leukemia KG1a cells; assay: proliferation of KG1a cells; format: cell-based; settings: dose-dependent
[11] = primary leukemia cells, representative AML patient
[12] = samples from 7 (1 CML and 6 AML) out of 8 leukemia patients

PGAM1, sequence (P18669 whole entry): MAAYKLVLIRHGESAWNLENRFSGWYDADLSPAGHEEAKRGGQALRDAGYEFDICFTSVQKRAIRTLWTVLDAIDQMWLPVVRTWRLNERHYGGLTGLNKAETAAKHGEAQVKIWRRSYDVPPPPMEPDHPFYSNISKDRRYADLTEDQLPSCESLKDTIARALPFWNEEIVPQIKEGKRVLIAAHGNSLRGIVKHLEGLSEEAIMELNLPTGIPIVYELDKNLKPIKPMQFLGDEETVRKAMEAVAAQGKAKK
purified human PGAM1 proteins, sequence (P18669 whole entry): as above
G6PD, sequence (P11413 whole entry): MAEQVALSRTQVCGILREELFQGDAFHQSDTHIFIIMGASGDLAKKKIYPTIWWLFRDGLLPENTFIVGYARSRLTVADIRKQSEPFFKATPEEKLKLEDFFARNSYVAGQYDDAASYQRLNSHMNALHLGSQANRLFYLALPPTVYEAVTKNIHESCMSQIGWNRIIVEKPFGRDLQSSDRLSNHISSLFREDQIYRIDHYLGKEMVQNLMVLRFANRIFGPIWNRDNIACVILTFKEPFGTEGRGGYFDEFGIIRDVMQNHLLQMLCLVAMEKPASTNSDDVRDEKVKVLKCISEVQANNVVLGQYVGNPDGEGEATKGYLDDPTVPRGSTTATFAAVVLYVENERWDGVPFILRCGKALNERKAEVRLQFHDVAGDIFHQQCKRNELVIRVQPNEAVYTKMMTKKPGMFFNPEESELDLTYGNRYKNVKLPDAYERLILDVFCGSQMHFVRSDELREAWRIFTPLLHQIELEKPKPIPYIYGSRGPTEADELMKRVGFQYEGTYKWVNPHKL

Compound: C#CCCCC(=O)OC(C)(C)C1CCC2(CO2)C(OC(=O)NC(Cc2c[nH]c3ccccc23)C(=O)OCc2ccccc2)C1 (stereo not shown) [MJE3]
cancer cell proliferation (cancer cells): attenuates cancer cell proliferation
PGAM1 activity (PGAM1): specifically inhibits PGAM1 activity exclusively in intact cells

Compound: O=C1c2ccccc2C(=O)c2c1cc(S(=O)(=O)Nc1ccc(C(F)(F)F)cc1)c(O)c2O [PGMI-004A]
PGAM1 enzyme activity in resected tumors (H1299 xenograft; 100mg/kg/day): effectively inhibits PGAM1 enzyme activity in tumors
tumor growth and tumor size (H1299 xenograft; 100mg/kg/day i.p., 21 days, vs vehicle): significantly decreased tumor growth and tumor size
cell proliferation [4]: decreased cell proliferation
cell proliferation (H1299 cells [5]): reduced
2-PG levels [6, 11]: decreased 2-PG levels
3-PG levels [6, 11]: increased 3-PG
PGAM1 activity [6, 12]: reduced PGAM1 activity
cell viability [6, 12]: decreased cell viability
lactate production [6, 12]: reduced
2-PG levels (H1299 cells [7]): decreased 2-PG
3-PG levels (H1299 cells [7]): increased 3-PG levels
biosynthesis of RNA (H1299 cells [7]): reduced biosynthesis
biosynthesis of lipids (H1299 cells [7]): reduced biosynthesis of lipids
intracellular ATP levels (H1299 cells [7]): no significant effect on intracellular ATP levels
lactate production (H1299 cells [7]): significantly reduced lactate production
oxidative PPP flux (H1299 cells [7]): decreased oxidative PPP flux
histopathological analyses vs vehicle-treated group (nude mice): no notable differences
tolerability of chronic injection (nude mice; 100mg/kg/day intraperitoneally, 4 weeks): well-tolerated dose
body weight, complete blood counts (CBC), hematopoietic properties (nude mice; 100mg/kg/day, 7 days): did not result in significant alteration
non-specific toxicity (cell proliferation) in normal cells [8]: minimal non-specific toxicity

Compound: O=C1c2ccccc2C(=O)c2c1ccc(O)c2O [alizarin, 1,2-dihydroxyanthraquinone]
cell proliferation [10]: decreased proliferation

Continued, in another order:

PHGDH enzyme activity (PHGDH; 2-PG ~45μM or ~60μM, H1299 PGAM1 knockdown cell lysates): higher PHGDH enzyme activity
6PGD enzyme activity (6PGD [1]; 2-PG): did not affect 6PGD enzyme activity
Compound: O=C(O)[C@@H](CO)OP(=O)(O)O [2-PG, 2-phosphoglycerate]
PHGDH activity (PHGDH; 2-PG ~15μM): did not significantly affect PHGDH activity
enzyme activity of recombinant PHGDH (rPHGDH) (PHGDH; increasing concentrations of 2-PG): increased enzyme activity of recombinant PHGDH

Kd (6PGD [2]): 460 ± 40 µM
6PGD enzyme activity (6PGD [1]; 3-PG ~250μM): decreased enzyme activity of 6PGD
mode of 6PGD inhibition (6PGD [3]; Lineweaver-Burk plot, 3-PG ~250μM, 6-PG ~35μM): competitive inhibitor of 6PGD
Ki (6PGD [3]; read-out: inhibition constant (Ki) of 6PGD, Dixon plot): 489 ± 13 µM
Compound: O=C(O)[C@H](O)COP(=O)(O)O [3-PG, 3-phosphoglycerate]
6PGD enzyme activity (6PGD [1]; 3-PG ~60μM): do not significantly affect 6PGD enzyme activity
G6PD activity (G6PD): did not significantly affect G6PD activity

relative potency as PGAM1 inhibitor in vitro [9]: more potent PGAM1 inhibitor
Compound: O=C1c2ccccc2C(=O)c2c1cc(S(=O)(=O)O)c(O)c2O [alizarin Red S]
